Legend:
[1] = Molar enthalpy of transition or fusion; details: Crystal; Adiabatic calorimetry
[2] = Adiabatic calorimetry
[3] = molar heat capacity at constant pressure; details: 101.33 kPa, Vacuum adiabatic calorimetry

CC(C)O [propan-2-ol]
Details	Molar enthalpy of transition or fusion [kJ/mol]
[1]	5.33

[2]
Details	Glass transition temperature [°C]	Triple point temperature [K]
Crystal	–	184.7
Glass	-156.0	–

[3]
Details	molar heat capacity at constant pressure [J/K/mol]
85 K, Glass	51.12
90 K, Glass	53.51
95 K, Glass	56.01
100 K, Crystal	54.18
100 K, Glass	58.63
105 K, Crystal	56.19
105 K, Glass	61.36
110 K, Crystal	58.21
110 K, Glass	64.24
115 K, Crystal	60.23
120 K, Crystal	62.27
120 K, Metastable liquid	103.93
125 K, Crystal	64.31
125 K, Metastable liquid	103.76
130 K, Crystal	66.36
130 K, Metastable liquid	103.51
135 K, Crystal	68.41
135 K, Metastable liquid	103.26
140 K, Crystal	70.47
145 K, Crystal	72.55
150 K, Crystal	74.62
155 K, Crystal	76.7
160 K, Crystal	78.79
165 K, Crystal	80.88

From the NIST ThermoML archive (doi:10.1016/j.tca.2018.11.020)
